Read-outs that look alike come from different tables or passages of the source.
Tests used:
[1] = target: NIH3T3 cell transfected with FGFR2-BICC1 type2 (Homo sapiens, UniProt P21802, DEL126-151/R152G)
Description: (§1) Using the following apparatus, the activity of FGFR inhibitors on the transformation capacity of FGFR2 fusion polypeptide was evaluated.

[2] = target: NIH3T3 cells transfected with FGFR2-KCTD1 (Homo sapiens, UniProt P21802); conditions: final concentration 0.2 μM; soft agar; FIG. 5 and FIG. 6
NIH3T3 cells transfected with FGFR2-KCTD1, sequence (P21802 with tags, fused parts or gaps isoform P21802-22): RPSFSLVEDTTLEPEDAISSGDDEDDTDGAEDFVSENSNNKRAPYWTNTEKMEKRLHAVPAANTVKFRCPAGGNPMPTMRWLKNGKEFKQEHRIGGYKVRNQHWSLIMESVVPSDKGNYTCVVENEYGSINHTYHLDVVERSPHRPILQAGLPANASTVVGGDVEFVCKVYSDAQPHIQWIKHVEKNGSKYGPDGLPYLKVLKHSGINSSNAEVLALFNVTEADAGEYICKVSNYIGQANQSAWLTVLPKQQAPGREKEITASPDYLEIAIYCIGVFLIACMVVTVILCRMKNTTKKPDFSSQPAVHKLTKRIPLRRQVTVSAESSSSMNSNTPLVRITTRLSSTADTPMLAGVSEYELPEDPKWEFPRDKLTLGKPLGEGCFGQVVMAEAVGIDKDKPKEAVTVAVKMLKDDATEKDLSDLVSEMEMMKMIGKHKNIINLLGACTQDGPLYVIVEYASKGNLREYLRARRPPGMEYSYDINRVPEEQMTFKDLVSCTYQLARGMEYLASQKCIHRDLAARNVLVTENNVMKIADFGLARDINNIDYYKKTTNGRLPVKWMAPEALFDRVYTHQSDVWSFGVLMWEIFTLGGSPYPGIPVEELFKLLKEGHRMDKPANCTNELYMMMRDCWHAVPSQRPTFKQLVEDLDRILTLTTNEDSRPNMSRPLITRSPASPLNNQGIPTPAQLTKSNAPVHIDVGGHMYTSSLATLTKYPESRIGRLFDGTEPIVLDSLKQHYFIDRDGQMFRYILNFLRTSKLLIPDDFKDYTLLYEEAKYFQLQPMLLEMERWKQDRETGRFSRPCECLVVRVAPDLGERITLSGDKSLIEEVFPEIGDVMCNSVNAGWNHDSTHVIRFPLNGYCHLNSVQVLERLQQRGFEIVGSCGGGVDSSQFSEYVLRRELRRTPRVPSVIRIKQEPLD
Description: as §1

[3] = target: NIH3T3 cells transfected with FGFR2-TXLNA (Homo sapiens, UniProt P21802, DEL126-151/R152G); conditions: final concentration 0.2 μM; soft agar; FIG. 5 and FIG. 6
NIH3T3 cells transfected with FGFR2-TXLNA, sequence (P21802 with tags, fused parts or gaps isoform P21802-22 DEL37-62/R63G): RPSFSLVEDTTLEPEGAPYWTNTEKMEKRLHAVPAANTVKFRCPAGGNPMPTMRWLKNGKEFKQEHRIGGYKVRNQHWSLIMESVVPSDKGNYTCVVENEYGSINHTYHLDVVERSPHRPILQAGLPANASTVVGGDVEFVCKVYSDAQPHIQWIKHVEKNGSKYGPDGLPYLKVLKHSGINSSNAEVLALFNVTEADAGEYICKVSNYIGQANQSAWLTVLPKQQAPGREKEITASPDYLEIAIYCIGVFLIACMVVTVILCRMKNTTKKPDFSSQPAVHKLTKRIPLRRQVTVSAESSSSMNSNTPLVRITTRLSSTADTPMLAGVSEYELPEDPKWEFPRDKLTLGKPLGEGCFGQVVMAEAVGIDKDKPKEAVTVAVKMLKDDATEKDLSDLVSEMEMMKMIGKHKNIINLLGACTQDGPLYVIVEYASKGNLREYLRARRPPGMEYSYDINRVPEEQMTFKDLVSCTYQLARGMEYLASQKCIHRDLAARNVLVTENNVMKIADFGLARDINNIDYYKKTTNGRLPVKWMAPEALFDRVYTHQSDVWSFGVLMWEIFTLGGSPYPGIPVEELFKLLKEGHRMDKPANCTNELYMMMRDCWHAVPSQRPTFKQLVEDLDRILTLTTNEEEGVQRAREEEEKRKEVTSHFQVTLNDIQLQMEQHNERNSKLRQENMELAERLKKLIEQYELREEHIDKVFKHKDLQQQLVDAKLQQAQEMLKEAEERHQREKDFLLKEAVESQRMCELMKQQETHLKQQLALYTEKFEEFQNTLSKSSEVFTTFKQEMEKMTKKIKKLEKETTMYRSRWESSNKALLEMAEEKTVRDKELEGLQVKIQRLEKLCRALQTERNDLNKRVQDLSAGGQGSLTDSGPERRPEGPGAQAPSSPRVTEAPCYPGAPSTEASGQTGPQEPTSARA
Description: as §1

[4] = test system: NIH3T3 cell line transfected with the FGFR2 fusion gene; experiment: Immunoblot (Western blot) analysis of downstream signal of FGFR2 fusion gene; type: cell-based, mouse; conditions: final concentration of FGFR inhibitor 0.2 μM or 0.5 μM, FIG. 3
Description: First, the wild-type FGFR2 fusion gene or KD mutant FGFR2 fusion gene was transfected into the mouse fibroblast cell line NIH3T3 using the retrovirus, and the obtained cell line was cultured in a liquid culture medium. The cultured cell line was subjected to serum starvation, and then treated with a culture medium containing an FGFR inhibitor before extracting the total proteins. Herein, the protein encoded by FGFR2-BICC1 type2, the protein encoded by FGFR2-TXLNA and the protein encoded by FGFR2-KCTD1 are shown in SEQ ID NOs: 6, 2 and 4, respectively.
Next, the NIH3T3 cell line transfected with the FGFR2 fusion gene was subjected to Western blot analysis after adding the FGFR inhibitor to the cell line (the final concentration of the FGFR inhibitor: 0.2 μM or 0.5 μM) and extracting the total proteins similarly.

[5] = Relative body weight in transplant model mice (safety of dosage); type: in vivo, mouse; conditions: 6.25, 12.5, 25 and 50 mg/kg orally once a day; dosage judged as safe
Description: Based on the tumor volume on the first day of administration, the mice were grouped so that mean values of the tumor volume of the groups were nearly equal to each other. […]. The Compound A solution was continuously administered orally to the mice in the Compound A administration group once a day at a dosage of 20 mL/kg. On the other hand, only the solvent (water for injection) was similarly administered to the mice in the control group. The Administration was carried out to FGFR2-BICC1 type2 or FGFR2-KCTD1 transplant model mice for 7 days and to FGFR2-TXLNA transplant model mice for 11 days.
On the first day and the last day of the administration, body weight was measured for each mice in the control group and the Compound A administration group. The ratio of the body weight on the last day to the body weight on the first day (relative body weight: RBW) was calculated. When the RBW of the Compound A administration group/the RBW of the control group was 0.9 or more, the dosage was judged as safe. The corresponding dosage was 6.25, 12.5, 25 and 50 mg/kg.

NIH3T3 cell transfected with FGFR2-BICC1 type2, sequence (P21802 with tags, fused parts or gaps isoform P21802-22 DEL37-62/R63G): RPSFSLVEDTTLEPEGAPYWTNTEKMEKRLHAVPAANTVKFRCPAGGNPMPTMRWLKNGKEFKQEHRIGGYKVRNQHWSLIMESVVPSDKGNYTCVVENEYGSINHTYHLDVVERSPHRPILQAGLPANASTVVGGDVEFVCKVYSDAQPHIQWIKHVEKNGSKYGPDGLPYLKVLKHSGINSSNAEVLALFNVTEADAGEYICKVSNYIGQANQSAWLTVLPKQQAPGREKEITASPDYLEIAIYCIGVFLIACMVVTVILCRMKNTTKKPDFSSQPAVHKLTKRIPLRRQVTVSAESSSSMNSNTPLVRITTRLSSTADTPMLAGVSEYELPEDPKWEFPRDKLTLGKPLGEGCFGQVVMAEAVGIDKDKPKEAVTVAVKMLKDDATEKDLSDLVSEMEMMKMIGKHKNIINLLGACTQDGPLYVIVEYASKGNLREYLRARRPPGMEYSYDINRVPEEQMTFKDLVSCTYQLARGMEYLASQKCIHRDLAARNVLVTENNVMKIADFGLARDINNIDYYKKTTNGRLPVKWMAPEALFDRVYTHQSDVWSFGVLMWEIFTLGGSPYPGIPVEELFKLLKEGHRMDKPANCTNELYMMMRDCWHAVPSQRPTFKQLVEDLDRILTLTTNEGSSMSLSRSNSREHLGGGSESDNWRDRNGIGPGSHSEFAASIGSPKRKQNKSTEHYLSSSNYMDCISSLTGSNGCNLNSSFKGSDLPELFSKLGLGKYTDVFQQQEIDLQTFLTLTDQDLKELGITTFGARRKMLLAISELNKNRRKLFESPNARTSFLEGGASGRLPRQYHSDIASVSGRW

CCN1CCN(c2ccc(Nc3cc(N(C)C(=O)Nc4c(Cl)c(OC)cc(OC)c4Cl)ncn3)cc2)CC1 [BGJ398]
anchorage independent growth ([1]; final concentration 0.2 μM, soft agar, FIG. 5 and FIG. 6): little suppressed | anchorage independent growth ([1]; final concentration 1.0 μM, FIG. 7): suppressed | anchorage independent growth [2]: significantly suppressed | anchorage independent growth [3]: significantly suppressed | phosphorylation of FGFR [4]: suppressed | phosphorylation of MAPK [4]: significantly suppressed

CCN(CC)CCCCNc1ncc2cc(-c3cc(OC)cc(OC)c3)c(NC(=O)NC(C)(C)C)nc2n1 [PD173074]
phosphorylation of FGFR [4]: suppressed | phosphorylation of MAPK [4]: significantly suppressed

CNC(=O)n1ccc2cc(Oc3ccnc(NC(=O)c4ccc(C5CCN(CCO)CC5)cc4)c3)c(OCCOC)cc21 [Compound A, 5-((2-(4-(1-(2-hydroxyethyl)piperidin-4-yl)benzamide)pyridin-4-yl)oxy)-6-(2-methoxyethoxy)-N-methyl-1H-indole-1-carboxamide 1.5 succinate]
phosphorylation of FGFR [4]: suppressed | phosphorylation of MAPK [4]: significantly suppressed | RBW of the Compound A administration group/the RBW of the control group [5]: ≥ 0.9
